For the assay, the target named is T1, INSR (Homo sapiens, UniProt P06213).
T1 construct: purchased Thermo Fisher Scientific (Life Technologies) SelectScreen
As to the kind of experiment: SelectScreen Z'LYTE. The assay is classed as biochemical. Summed up: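 SelectScreen broad panel; activity (Z'LYTE, Adapta) plus binding formats. ATP: Km app for CSF1R Z'LYTE; 10 for CAMK1 Adapta. Readout = % per kinase.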

T1 sequence (P06213 28-1382): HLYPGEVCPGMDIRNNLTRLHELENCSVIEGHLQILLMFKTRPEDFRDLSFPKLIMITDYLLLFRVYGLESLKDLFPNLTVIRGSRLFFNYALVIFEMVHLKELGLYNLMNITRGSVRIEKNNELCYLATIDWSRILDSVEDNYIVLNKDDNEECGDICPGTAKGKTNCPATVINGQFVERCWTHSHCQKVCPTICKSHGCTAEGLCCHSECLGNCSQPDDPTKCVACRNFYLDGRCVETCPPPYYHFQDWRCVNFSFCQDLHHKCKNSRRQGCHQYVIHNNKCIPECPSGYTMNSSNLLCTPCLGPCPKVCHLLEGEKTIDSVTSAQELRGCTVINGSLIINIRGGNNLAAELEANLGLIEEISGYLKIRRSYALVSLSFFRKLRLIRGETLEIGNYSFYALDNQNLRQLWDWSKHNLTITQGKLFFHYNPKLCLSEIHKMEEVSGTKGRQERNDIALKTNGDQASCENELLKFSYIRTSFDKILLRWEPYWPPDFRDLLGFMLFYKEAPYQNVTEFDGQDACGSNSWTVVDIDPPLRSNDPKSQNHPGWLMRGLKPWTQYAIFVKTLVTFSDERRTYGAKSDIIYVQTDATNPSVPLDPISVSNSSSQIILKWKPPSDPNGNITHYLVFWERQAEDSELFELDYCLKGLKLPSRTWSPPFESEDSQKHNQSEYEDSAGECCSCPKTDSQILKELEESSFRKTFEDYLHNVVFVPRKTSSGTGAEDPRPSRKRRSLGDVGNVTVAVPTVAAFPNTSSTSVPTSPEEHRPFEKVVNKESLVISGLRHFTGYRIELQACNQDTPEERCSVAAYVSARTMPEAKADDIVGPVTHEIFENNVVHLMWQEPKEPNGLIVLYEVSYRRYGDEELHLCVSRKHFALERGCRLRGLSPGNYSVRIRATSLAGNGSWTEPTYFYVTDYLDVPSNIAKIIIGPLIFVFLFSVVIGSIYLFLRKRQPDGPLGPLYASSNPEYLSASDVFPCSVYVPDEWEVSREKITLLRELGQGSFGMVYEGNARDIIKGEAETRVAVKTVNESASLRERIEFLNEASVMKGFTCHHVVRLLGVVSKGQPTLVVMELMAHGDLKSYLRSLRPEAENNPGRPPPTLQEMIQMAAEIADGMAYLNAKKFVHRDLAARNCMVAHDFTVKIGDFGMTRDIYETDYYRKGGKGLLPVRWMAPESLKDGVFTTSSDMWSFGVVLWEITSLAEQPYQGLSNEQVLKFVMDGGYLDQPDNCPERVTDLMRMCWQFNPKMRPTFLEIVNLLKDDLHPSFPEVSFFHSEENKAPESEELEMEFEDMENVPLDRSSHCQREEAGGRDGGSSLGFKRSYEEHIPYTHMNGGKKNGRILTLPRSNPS

What is called inhibition is the relative decrease from the control value, in per cent. Higher therefore signals a response far below the control. Turning to `CN(C(=O)CN1CCOCC1)c1ccc2sc3c(-c4cccc5c(=O)cc(N6CC7CCC(C6)O7)oc45)cccc3c2c1` [NU5455], the inhibition at 1 µM was determined as 4.1%.

The values are drawn from publication PMC6934184, “Selective DNA-PKcs inhibition extends the therapeutic index of localized radiotherapy and chemotherapy” (The Journal of Clinical Investigation, 2019).
